# Test results from patent US4499091A, “1-Amino (or substituted amino)-1,4-dihydro-4-oxo-6-fluoro-7-heterylquinoline-3-carboxylic acids and their use as antibacterial agents” (Sterling Drug Inc., priority 1983, dated 1985).
# Like-named read-outs stand apart in the source and are kept apart here.
# What was measured:
# Escherichia coli Vogel [1] = assay: in vitro antibacterial activity, serial dilution (MIC); format: cell-based; settings: 18-20 hours static incubation, read-out: Minimal Inhibitory Concentration (MIC)
# Experimental: (§1) The in vitro antibacterial activity of the compounds of the invention was determined by conventional serial dilution procedures. Bacterial cultures were grown in tryptose phosphate broth or brain heart infusion broth (containing heat-inactivated normal horse serum for tests with S. pyogenes) overnight at 37° C. and subsequently diluted in double strength broth to provide bacterial inocula of about 2×10^5 cells/ml. Aqueous solutions of the compounds of the invention were prepared by dissolving the free acid form in 0.5N sodium hydroxide. The solutions were diluted with sterile distilled water to 1000 mcg/ml of compound in terms of the free acid. Serial two-fold dilutions of the compound stock solutions were prepared in water and 0.5 ml of each dilution was transferred to sets of tubes, one set for each bacterial inoculum.
# [2] = tested on: Klebsiella pneumoniae 39645; assay: as above; format: cell-based; settings: 18-20 hours static incubation, read-out: Minimal Inhibitory Concentration (MIC)
# Experimental: as §1
# Proteus mirabilis MGH-1 = assay: as above; format: cell-based; settings: MGH1, 18-20 hours static incubation, read-out: Minimal Inhibitory Concentration (MIC)
# Experimental: as §1
# Proteus vulgaris 9920 = assay: as above; format: cell-based; settings: 18-20 hours static incubation, read-out: Minimal Inhibitory Concentration (MIC)
# Experimental: as §1
# Escherichia coli Vogel [3] = assay: in vivo antibacterial activity in mice infected with E. coli (PD50); set-up: species or system mouse (female) infected with Escherichia coli; settings: 168 h
# Experimental: (§2) The in vivo antibacterial activity of the compounds of the invention was determined in female mice, 18-20 grams each, by the following procedure:
# (§3) Aqueous solutions of the compounds to be tested were prepared by dissolving the free acid form in dilute sodium hydroxide and diluting the solution with distilled water to be desired volume.
# (§4) Cultures of Escherichia coli Vogel prepared in brain heart infusion broth, cultures of Klebsiella pneumoniae 39645 grown in tryptose phosphate broth with 5% rabbit serum diluted in the same broth and cultures of Pseudomonas aeruginosa MGH-2 grown on brain heart infusion agar and suspended in physiological saline, were used to infect the mice as follows:
# Mice infected with E. coli were medicated once (0.5 ml) one-half hour post infection, the test compound being administered by either the subcutaneous (s.c.) or oral (p.o.) route. Deaths were recorded daily for seven days.
# (§5) Groups of ten animals each for four or five dose levels were thus treated and the number of survivors in each group recorded. The fifty percent protective dose values (PD50) were then calculated.
# [4] = tested on: Klebsiella pneumoniae 39645; assay: in vivo antibacterial activity in mice infected with K. pneumoniae (PD50); set-up: species or system mouse (female) infected with Klebsiella pneumoniae
# Experimental: as §2, §3, §4
# K. pneumoniae: mice were inoculated intramuscularly in the right hind leg with 0.2 ml of the bacterial test inoculum (2.05×10^4 cells/ml).
# Mice infected with K. pneumoniae were medicated at the following times: seventeen hours and one hour preinfection, six hours postinfection and twice a day for the next three days. The test compound was administered by both subcutaneous (0.2 ml) and oral (0.5 ml) routes. Deaths were recorded daily for fourteen days.
# as §5
# [5] = tested on: Pseudomonas aeruginosa MGH-2; assay: in vitro antibacterial activity, serial dilution (MIC); format: cell-based; settings: MGH2, 18-20 hours static incubation, read-out: Minimal Inhibitory Concentration (MIC)
# Experimental: as §1
# [6] = tested on: Staphylococcus aureus Smith; assay: as above; format: cell-based; settings: 18-20 hours static incubation, read-out: Minimal Inhibitory Concentration (MIC)
# Experimental: as §1
# [7] = tested on: Streptococcus pyogenes C203; assay: as above; format: cell-based; settings: 18-20 hours static incubation, read-out: Minimal Inhibitory Concentration (MIC)
# Experimental: as §1
# [8] = sc, mouse, E. coli, s.c., once one-half hour post infection, 7 days, read-out: Protective Dose (PD50)
# [9] = Klebsiella pneumoniae, 39645, sc, 336 h, mouse, K. pneumoniae, s.c., pre- and postinfection, 14 days, read-out: Protective Dose (PD50)
SMILES,MIC (Escherichia coli Vogel [1]) [µg/mL],MIC [2] [µg/mL],MIC (Proteus mirabilis MGH-1) [µg/mL],MIC (Proteus vulgaris 9920) [µg/mL],ED50 (Escherichia coli Vogel [3]; [8]) [mg/kg],"ED50 [4, 9] [mg/kg]",MIC [5] [µg/mL],MIC [6] [µg/mL],MIC [7] [µg/mL],"ED50 (Escherichia coli Vogel [3]; mouse, E. coli, route not stated, read-out: fifty percent protective dose) [mg/kg]","ED50 ([4]; Klebsiella pneumoniae, 39645, 336 h, mouse, K. pneum., route not stated, read-out: fifty percent protective dose) [mg/kg]","ED50 (Escherichia coli Vogel [3]; sc, read-out: Protective Dose (PD50)) [mg/kg]","ED50 ([4]; Klebsiella pneumoniae, 39645, sc, 336 h, read-out: Protective Dose (PD50)) [mg/kg]"
"CCOC(=O)c1cn(NC)c2cc(N3CCN(C)CC3)c(F)cc2c1=O [Example 9, Ethyl 6-fluoro-1,4-dihydro-1-methylamino-7-(4-methyl-1-piperazinyl)-4-oxo-3-quinolinecarboxylate]",62.5,62.5,12.5,31.3,4.4,> 200,–,–,–,–,–,–,–
"CNn1cc(C(=O)O)c(=O)c2cc(F)c(N3CCOCC3)cc21 [Example 13, 6-Fluoro-1,4-dihydro-1-methylamino-7-(4-morpholinyl)-4-oxo-3-quinolinecarboxylic acid]",0.5,1.95,–,0.125,16.3,200,15.6,1,15.6,–,–,–,–
CNn1cc(C(=O)O)c(=O)c2cc(F)c(N3CC[N+](C)([O-])CC3)cc21 [4'-oxide],16,32,32,–,–,–,–,–,–,–,–,–,–
"CNn1cc(C(=O)O)c(=O)c2cc(F)c(Cl)cc21 [7-Chloro-6-fluoro-1,4-dihydro-1-methylamino-4-oxo-3-quinolinecarboxylic acid]",1,1.95,1,–,–,–,–,–,–,56,186,–,–
"Nn1cc(C(=O)O)c(=O)c2cc(F)c(N3CCNCC3)cc21 [Example 2, 1-Amino-6-fluoro-1,4-dihydro-4-oxo-7-(1-piperazinyl)-3-quinolinecarboxylic acid]",–,–,–,–,–,–,62.5,31.3,–,–,–,> 200,> 200
"CNn1cc(C(=O)O)c(=O)c2cc(F)c(N3CCCC(O)C3)cc21 (centres unmarked) [Example 18, 6-Fluoro-1,4-dihydro-7-(3-hydroxy-1-piperidinyl)-1-methylamino-4-oxo-3-quinolinecarboxylic acid]",–,–,–,0.25,38,> 200,31.3,1.95,15.6,–,–,–,–
"CNn1cc(C(=O)O)c(=O)c2cc(F)c(N3CCN(C(C)=O)CC3)cc21 [Example 14, 7-(4-Acetyl-1-piperazinyl)-6-fluoro-1,4-dihydro-1-methylamino-4-oxo-3-quinolinecarboxylic acid]",15.6,–,15.6,1.95,100,100,62.5,–,31.3,–,–,–,–
"CNn1cc(C(=O)O)c(=O)c2cc(F)c(N3CCC(O)CC3)cc21 [Example 17, 6-Fluoro-1,4-dihydro-7-(4-hydroxy-1-piperidinyl)-1-methylamino-4-oxo-3-quinolinecarboxylic acid]",1.95,–,–,0.125,12.5,200,–,1.95,31.3,–,–,–,–
"C=CCNn1cc(C(=O)O)c(=O)c2cc(F)c(N3CCN(C)CC3)cc21 [Example 12, 6-Fluoro-1,4-dihydro-7-(4-methyl-1-piperazinyl)-4-oxo-1-(2-propenylamino)-3-quinolinecarboxylic acid]",1,1.95,–,1,18.9,141,15.6,–,62.5,–,–,–,–
"CCCN1CCN(c2cc3c(cc2F)c(=O)c(C(=O)O)cn3NC)CC1 [Example 11, 6-Fluoro-1,4-dihydro-1-methylamino-4-oxo-7-(4-propyl-1-piperazinyl)-3-quinolinecarboxylic acid]",0.25,0.5,1,0.25,14.8,81.5,–,1.95,–,–,–,–,–
"CN1CCN(c2cc3c(cc2F)c(=O)c(C(=O)O)cn3N(C)C=O)CC1 [Example 23, 6-Fluoro-1-(N-formylmethylamino)-1,4-dihydro-7-(4-methyl-1-piperazinyl)-4-oxo-3-quinolinecarboxylic acid]",1.95,1.95,–,1,10.4,> 200,–,15.6,–,–,–,–,–
